Assay results from US20260092083A1, “VANCOMYCIN DERIVATIVES WITH SIDEROPHORE MODIFICATION AS NOVEL REPURPOSED ANTIBIOTICS TO COMBAT GRAM-NEGATIVE BACTERIAL INFECTION” (priority 2023, published 2026).
Values after ≈ are worked out from the molar mass of the structure shown.

What was measured:
Type in all cases: cell-based
[1] = test system: P. aeruginosa (multi-pump-gene mutant) PAM1626; test: Broth microdilution MIC, P. aeruginosa efflux-deficient; details: Pseudomonas aeruginosa, read-out: MIC (μg/mL) Gram-negative PSA Efflux
Protocol: (§1) The test compounds including vancomycin hydrochloride were supplied as a 6.4 mg/mL solution in 100% dimethyl sulfoxide (DMSO) aliquoted into individual wells of a 96-well plate (50 μL per well). […] Standardized inocula were added to the MIC test plates, which were incubated for the prescribed times at 35° C. The N. gonorrhoeae strain was incubated in an atmosphere containing 5% CO2.
(§2) The final optical density of each well at 600 nm was measured using a Tecan Spark plate reader. The compound concentration versus OD600 data were then curve fit using custom software. An MIC value was defined as the lowest compound concentration that led to an OD600 value≤0.15 for the E. coli, K. pneumoniae, P. aeruginosa, A. baumannii, or S. aureus strains. For the N. gonorrhoeae strain, an OD600 value≤0.19 was used as a cutoff to define an MIC value; this higher cut-off value was required because the N. gonorrhoeae MIC plates were covered with plastic seals that increased the background OD600 value.
(§3) JMI Laboratories followed current CLSI quality assurance practices when performing the susceptibility tests. MIC values were validated by concurrently testing the CLSI-recommended ATCC QC reference strains S. aureus ATCC 29213 and K. pneumoniae ATCC 700603. The inoculum density during susceptibility testing was monitored by bacterial colony counts. Where applicable, QC ranges for tested reference strains were those ranges approved or published by CLSI for testing in CAMHB. […] Importantly, the CLSI reference method for testing N. gonorrhoeae is the agar dilution MIC method, which was not used here. Thus, CLSI MIC QC ranges for N. gonorrhoeae could not be applied to the antimicrobials studied here.
(§4) Abbreviations: EC, E. coli (wild-type) BW25113; EC efflux^−, E. coli (tolC) JW5503-1; KPN, K. pneumoniae ATCC 700603; PSA, P. aeruginosa PAO1; PSA efflux^−, P. aeruginosa (multi-pump-gene mutant) PAM1626; ACB, A. baumannii JMI #1186154; GC, N. gonorrhoeae WHO-Z; SA, S. aureus ATCC 29213. Broth microdilution MIC values were measured in iron-depleted CAMHB for all strains except for GC, which was tested in fastidious broth.

[2] = test system: K. pneumoniae ATCC 700603; test: Broth microdilution MIC, K. pneumoniae; details: Klebsiella pneumoniae, ATCC700603, read-out: MIC (μg/mL) Gram-negative KPN
Protocol: as §1, §2, §3, §4

S. aureus ATCC 29213 = test: Broth microdilution MIC, S. aureus; details: Staphylococcus aureus, ATCC29213, iron-depleted CAMHB, OD600 ≤0.15, read-out: MIC (μg/mL) Gram positive SA
Protocol: as §1, §2, §3, §4

[3] = test system: A. baumannii JMI #1186154; test: Broth microdilution MIC, A. baumannii; details: Acinetobacter baumannii, iron-depleted CAMHB, OD600 ≤0.15, read-out: MIC (μg/mL) Gram-negative ACB
Protocol: as §1, §2, §3, §4

N. gonorrhoeae WHO-Z = test: Broth microdilution MIC, N. gonorrhoeae; details: Neisseria gonorrhoeae, read-out: MIC (μg/mL) Gram-negative GC
Protocol: as §1, §2, §3, §4

[4] = test system: E. coli (wild-type) BW25113; test: Broth microdilution MIC, E. coli wild-type; details: Escherichia coli, iron-depleted CAMHB, OD600 ≤0.15, read-out: MIC (μg/mL) Gram-negative EC
Protocol: as §1, §2, §3, §4

E. coli (tolC) JW5503-1 = test: Broth microdilution MIC, E. coli efflux-deficient (tolC); details: Escherichia coli, read-out: MIC (μg/mL) Gram-negative EC Efflux
Protocol: as §1, §2, §3, §4

P. aeruginosa PAO1 = test: Broth microdilution MIC, P. aeruginosa; details: Pseudomonas aeruginosa, iron-depleted CAMHB, OD600 ≤0.15, read-out: MIC (μg/mL) Gram-negative PSA
Protocol: as §1, §2, §3, §4

## CN[C@H](CC(C)C)C(=O)N[C@H]1C(=O)N[C@@H](CC(N)=O)C(=O)N[C@H]2C(=O)N[C@H]3C(=O)N[C@H](C(=O)N[C@H](C(=O)NCCCCNC(=O)c4ccc(O)c(O)c4Cl)c4cc(O)cc(O)c4-c4cc3ccc4O)[C@H](O)c3ccc(c(Cl)c3)Oc3cc2cc(c3O[C@@H]2O[C@H](CO)C(O)C(O)[C@H]2O[C@H]2CC(C)(N)[C@H](O)[C@H](C)O2)Oc2ccc(cc2Cl)[C@H]1O (some centres unmarked) [Compound 5]
[1]
  MIC: > 64 µg/mL
[2]
  MIC: > 64 µg/mL
S. aureus ATCC 29213
  MIC: 4 µg/mL (≈ 2.37 µM)
[3]
  MIC: 1 µg/mL (≈ 0.592 µM)
N. gonorrhoeae WHO-Z
  MIC: > 64 µg/mL
[4]
  MIC: 8 µg/mL (≈ 4.73 µM)
E. coli (tolC) JW5503-1
  MIC: > 64 µg/mL
P. aeruginosa PAO1
  MIC: > 64 µg/mL

## CN[C@H](CC(C)C)C(=O)N[C@H]1C(=O)N[C@@H](CC(N)=O)C(=O)N[C@H]2C(=O)N[C@H]3C(=O)N[C@H](C(=O)N[C@H](C(=O)NCCCCCNC(=O)c4ccc(O)c(O)c4Cl)c4cc(O)cc(O)c4-c4cc3ccc4O)[C@H](O)c3ccc(c(Cl)c3)Oc3cc2cc(c3O[C@@H]2O[C@H](CO)C(O)C(O)[C@H]2O[C@H]2CC(C)(N)[C@H](O)[C@H](C)O2)Oc2ccc(cc2Cl)[C@H]1O (some centres unmarked) [Compound 6]
[1]
  MIC: > 64 µg/mL
[2]
  MIC: > 64 µg/mL
S. aureus ATCC 29213
  MIC: 4 µg/mL (≈ 2.35 µM)
[3]
  MIC: 4 µg/mL (≈ 2.35 µM)
N. gonorrhoeae WHO-Z
  MIC: > 64 µg/mL
[4]
  MIC: 64 µg/mL (≈ 37.6 µM)
E. coli (tolC) JW5503-1
  MIC: > 64 µg/mL
P. aeruginosa PAO1
  MIC: > 64 µg/mL

## CN[C@H](CC(C)C)C(=O)N[C@H]1C(=O)N[C@@H](CC(N)=O)C(=O)N[C@H]2C(=O)N[C@H]3C(=O)N[C@H](C(=O)N[C@H](C(=O)NCCCCCCNC(=O)c4ccc(O)c(O)c4Cl)c4cc(O)cc(O)c4-c4cc3ccc4O)[C@H](O)c3ccc(c(Cl)c3)Oc3cc2cc(c3O[C@@H]2O[C@H](CO)C(O)C(O)[C@H]2O[C@H]2CC(C)(N)[C@H](O)[C@H](C)O2)Oc2ccc(cc2Cl)[C@H]1O (some centres unmarked) [Compound 7]
[1]
  MIC: > 64 µg/mL
[2]
  MIC: > 64 µg/mL
S. aureus ATCC 29213
  MIC: 4 µg/mL (≈ 2.33 µM)
[3]
  MIC: 1 µg/mL (≈ 0.582 µM)
N. gonorrhoeae WHO-Z
  MIC: > 64 µg/mL
[4]
  MIC: 64 µg/mL (≈ 37.3 µM)
E. coli (tolC) JW5503-1
  MIC: 64 µg/mL (≈ 37.3 µM)
P. aeruginosa PAO1
  MIC: > 64 µg/mL

## CN[C@H](CC(C)C)C(=O)N[C@H]1C(=O)N[C@@H](CC(N)=O)C(=O)N[C@H]2C(=O)N[C@H]3C(=O)N[C@H](C(=O)N[C@H](C(=O)NCCCCCCCNC(=O)c4ccc(O)c(O)c4Cl)c4cc(O)cc(O)c4-c4cc3ccc4O)[C@H](O)c3ccc(c(Cl)c3)Oc3cc2cc(c3O[C@@H]2O[C@H](CO)C(O)C(O)[C@H]2O[C@H]2CC(C)(N)[C@H](O)[C@H](C)O2)Oc2ccc(cc2Cl)[C@H]1O (some centres unmarked) [Compound 8]
[1]
  MIC: > 64 µg/mL
[2]
  MIC: > 64 µg/mL
S. aureus ATCC 29213
  MIC: 4 µg/mL (≈ 2.31 µM)
[3]
  MIC: 2 µg/mL (≈ 1.15 µM)
N. gonorrhoeae WHO-Z
  MIC: > 64 µg/mL
[4]
  MIC: 64 µg/mL (≈ 37 µM)
E. coli (tolC) JW5503-1
  MIC: 64 µg/mL (≈ 37 µM)
P. aeruginosa PAO1
  MIC: > 64 µg/mL

## CN[C@H](CC(C)C)C(=O)N[C@H]1C(=O)N[C@@H](CC(N)=O)C(=O)N[C@H]2C(=O)N[C@H]3C(=O)N[C@H](C(=O)N[C@H](C(=O)NCCCCCCCCNC(=O)c4ccc(O)c(O)c4Cl)c4cc(O)cc(O)c4-c4cc3ccc4O)[C@H](O)c3ccc(c(Cl)c3)Oc3cc2cc(c3O[C@@H]2O[C@H](CO)C(O)C(O)[C@H]2O[C@H]2CC(C)(N)[C@H](O)[C@H](C)O2)Oc2ccc(cc2Cl)[C@H]1O (some centres unmarked) [Compound 9]
[1]
  MIC: > 64 µg/mL
[2]
  MIC: > 64 µg/mL
S. aureus ATCC 29213
  MIC: 4 µg/mL (≈ 2.29 µM)
[3]
  MIC: 8 µg/mL (≈ 4.58 µM)
N. gonorrhoeae WHO-Z
  MIC: > 64 µg/mL
[4]
  MIC: 64 µg/mL (≈ 36.7 µM)
E. coli (tolC) JW5503-1
  MIC: 64 µg/mL (≈ 36.7 µM)
P. aeruginosa PAO1
  MIC: > 64 µg/mL

## CN[C@H](CC(C)C)C(=O)N[C@H]1C(=O)N[C@@H](CC(N)=O)C(=O)N[C@H]2C(=O)N[C@H]3C(=O)N[C@H](C(=O)N[C@H](C(=O)NCCCNC(=O)c4cccc(O)c4O)c4cc(O)cc(O)c4-c4cc3ccc4O)[C@H](O)c3ccc(c(Cl)c3)Oc3cc2cc(c3O[C@@H]2O[C@H](CO)C(O)C(O)[C@H]2O[C@H]2CC(C)(N)[C@H](O)[C@H](C)O2)Oc2ccc(cc2Cl)[C@H]1O (some centres unmarked) [Compound 12]
[1]
  MIC: > 64 µg/mL
[2]
  MIC: > 64 µg/mL
S. aureus ATCC 29213
  MIC: 2 µg/mL (≈ 1.22 µM)
[3]
  MIC: 4 µg/mL (≈ 2.44 µM)
N. gonorrhoeae WHO-Z
  MIC: > 64 µg/mL
[4]
  MIC: 64 µg/mL (≈ 39 µM)
E. coli (tolC) JW5503-1
  MIC: 64 µg/mL (≈ 39 µM)
P. aeruginosa PAO1
  MIC: > 64 µg/mL

## CN[C@H](CC(C)C)C(=O)N[C@H]1C(=O)N[C@@H](CC(N)=O)C(=O)N[C@H]2C(=O)N[C@H]3C(=O)N[C@H](C(=O)N[C@H](C(=O)NCCCCNC(=O)c4cccc(O)c4O)c4cc(O)cc(O)c4-c4cc3ccc4O)[C@H](O)c3ccc(c(Cl)c3)Oc3cc2cc(c3O[C@@H]2O[C@H](CO)C(O)C(O)[C@H]2O[C@H]2CC(C)(N)[C@H](O)[C@H](C)O2)Oc2ccc(cc2Cl)[C@H]1O (some centres unmarked) [Compound 13]
[1]
  MIC: > 64 µg/mL
[2]
  MIC: > 64 µg/mL
S. aureus ATCC 29213
  MIC: 2 µg/mL (≈ 1.21 µM)
[3]
  MIC: 4 µg/mL (≈ 2.42 µM)
N. gonorrhoeae WHO-Z
  MIC: > 64 µg/mL
[4]
  MIC: 64 µg/mL (≈ 38.7 µM)
E. coli (tolC) JW5503-1
  MIC: > 64 µg/mL
P. aeruginosa PAO1
  MIC: > 64 µg/mL

## CNC(CC(C)C)C(=O)NC1C(=O)NC(CC(N)=O)C(=O)NC2C(=O)NC3C(=O)NC(C(=O)N[C@H](C(=O)NCCc4cn(CCNC(=O)c5cccc(O)c5O)nn4)c4cc(O)cc(O)c4-c4cc3ccc4O)C(O)c3ccc(c(Cl)c3)Oc3cc2cc(c3OC2OC(CO)C(O)C(O)C2OC2CC(C)(N)C(O)C(C)O2)Oc2ccc(cc2Cl)C1O (some centres unmarked) [Compound 15]
[1]
  MIC: > 64 µg/mL
[2]
  MIC: > 64 µg/mL
S. aureus ATCC 29213
  MIC: 4 µg/mL (≈ 2.32 µM)
[3]
  MIC: 16 µg/mL (≈ 9.29 µM)
N. gonorrhoeae WHO-Z
  MIC: > 64 µg/mL
[4]
  MIC: > 64 µg/mL
E. coli (tolC) JW5503-1
  MIC: > 64 µg/mL
P. aeruginosa PAO1
  MIC: > 64 µg/mL

## CN[C@H](CC(C)C)C(=O)N[C@H]1C(=O)N[C@@H](CC(N)=O)C(=O)N[C@H]2C(=O)N[C@H]3C(=O)N[C@H](C(=O)N[C@H](C(=O)NCCCNS(=O)(=O)c4ccc(O)c(O)c4)c4cc(O)cc(O)c4-c4cc3ccc4O)[C@H](O)c3ccc(c(Cl)c3)Oc3cc2cc(c3O[C@@H]2O[C@H](CO)C(O)C(O)[C@H]2O[C@H]2CC(C)(N)[C@H](O)[C@H](C)O2)Oc2ccc(cc2Cl)[C@H]1O (some centres unmarked) [Compound 16]
[1]
  MIC: > 64 µg/mL
[2]
  MIC: > 64 µg/mL
S. aureus ATCC 29213
  MIC: 4 µg/mL (≈ 2.38 µM)
[3]
  MIC: 4 µg/mL (≈ 2.38 µM)
N. gonorrhoeae WHO-Z
  MIC: > 64 µg/mL
[4]
  MIC: 32 µg/mL (≈ 19.1 µM)
E. coli (tolC) JW5503-1
  MIC: 64 µg/mL (≈ 38.2 µM)
P. aeruginosa PAO1
  MIC: > 64 µg/mL

## CN[C@H](CC(C)C)C(=O)N[C@H]1C(=O)N[C@@H](CC(N)=O)C(=O)N[C@H]2C(=O)N[C@H]3C(=O)N[C@H](C(=O)N[C@H](C(=O)NCCCCNS(=O)(=O)c4ccc(O)c(O)c4)c4cc(O)cc(O)c4-c4cc3ccc4O)[C@H](O)c3ccc(c(Cl)c3)Oc3cc2cc(c3O[C@@H]2O[C@H](CO)C(O)C(O)[C@H]2O[C@H]2CC(C)(N)[C@H](O)[C@H](C)O2)Oc2ccc(cc2Cl)[C@H]1O (some centres unmarked) [Compound 17]
[1]
  MIC: > 64 µg/mL
[2]
  MIC: > 64 µg/mL
S. aureus ATCC 29213
  MIC: 2 µg/mL (≈ 1.18 µM)
[3]
  MIC: 2 µg/mL (≈ 1.18 µM)
N. gonorrhoeae WHO-Z
  MIC: > 64 µg/mL
[4]
  MIC: 32 µg/mL (≈ 18.9 µM)
E. coli (tolC) JW5503-1
  MIC: 64 µg/mL (≈ 37.8 µM)
P. aeruginosa PAO1
  MIC: > 64 µg/mL
